Assay results from PMC10876669, “Substrate promiscuity of inositol 1,4,5-trisphosphate kinase driven by structurally-modified ligands and active site plasticity” (Nature Communications, 2024).
Where “and” joins values, the source holds several entries; their conditions need not be identical. Identical values can stand only once. Entries after “also recorded” stand apart in the source; their conditions may differ.

Legend:
IP3K-KD [1] = biological target: T1, IP3K-KD (Homo sapiens, UniProt P23677); assay: Direct binding of 2-FITC-InsP3 to IP3K-KD, one-site binding model; conditions: GraphPad Prism
T1 construct: human IP3K-KD A isoform (residues 187–461); GST (cleaved yes); made in house; host or cells: Escherichia coli BL21 star (DE3)

[2] = test system: permeabilized rat hepatocytes; set-up: method as in PMID 11405648; conditions: cited from earlier work
[3] = biological target: T2, IP3K-KD (human IP3K-KD A isoform, residues 187–461) (Homo sapiens, UniProt P23677); assay: Fluorescence thermal shift analysis (Tycho NT.6, inflection temperature Ti); assay type: binding; conditions: for Ti, transition 1 (mean inflection temperature) / Ti, transition 2 (mean inflection temperature): 10 μM IP3K-KD, 100 μM chiral or 200 μM racemic ligand, AMP-PNP or ADP, 100 μM MgCl2; for Ti, transition 1 (mean inflection temperature) / Ti, transition 2 (mean inflection temperature) / ΔTi, transition 1 / ΔTi, transition 2: mean ± SD, n=3; for ΔTi, transition 1: Ti minus Ti of apo IP3K-KD (44.4); for ΔTi, transition 2: Ti minus Ti of apo IP3K-KD (53.8); for Transition 1 Ti, individual measurement / Transition 2 Ti, individual measurement: source data of Fig. 6b/6c, single replicates; for Transition 1 Dti (Ti-Ti Apo) / Transition 1 Ti Mean / Transition 2 DTi (Ti-Ti Apo) / Transition 2 Ti Mean: source data of Fig. 6c, N 3; for Stabilization of IP3K-KD by ligand (in words): thermal shift, Fig. 6c
T2 construct: human IP3K-KD A isoform (residues 187–461); GST (cleaved yes); made in house; host or cells: Escherichia coli BL21 star (DE3)
Protocol: (§1) A construct encoding human IP3K-KD A isoform (residues 187–461) into pOPTG vector was used[16]. The protein was expressed in Escherichia coli BL21 star (DE3) strain. Cells were grown at 37 °C to OD600 = 1.0 then induced with 0.4 mM IPTG for 18 h at 16 °C. Protein purification was performed by adapting the reported protocol. Cells were resuspended in buffer A (10 mM Tris pH 7.5 [4 °C], 200 mM NaCl and 2 mM DTT) and disrupted by sonication. Clarified cell lysate was diluted 1/4 in buffer B (10 mM Tris pH 7.5 [4 °C] and 2 mM DTT) and loaded into a 5 mL HiTrap heparin column (GE Healthcare) washed by buffer C (20 mM Tris pH 7.5, 50 mM NaCl and 2 mM DTT), and eluted with a 0.05 M–1 M salt gradient. The eluted sample was subsequently loaded on to a 5 mL glutathione–Sepharose HP column (GE Healthcare), washed with buffer A and eluted with reduced glutathione 10 mM (Sigma-Aldrich) in buffer A. The GST tag was cleaved with home-made TEV (tobacco etch virus) protease overnight at 4 °C, (1:40 TEV/protein mass ratio). After glutathione removal with a PD10 column, the cleaved protein was further purified using a 5 mL glutathione–Sepharose HP column (GE Healthcare) followed by gel filtration on a 16/600 Superdex200 (GE Healthcare) column equilibrated in buffer D (20 mM Tris pH 7.5 [4 °C], 0.05 M (NH4)2SO4 and 2 mM DTT). Protein samples were analyzed by SDS/PAGE, concentrated around 18 mg/mL and stored at −80 °C until use.
Thermal protein denaturation was documented by recording intrinsic protein fluorescence at 330 and 350 nm wavelengths. The fluorescence recorded in each thermal run is plotted as 350/330 nm ratio and used to calculate the Inflection Temperature (Ti). Ti is the temperature at which a protein undergoes a transition in its folding state. This calculation is performed automatically by the Tycho NT.6 software. The protocol optimized for this procedure, involves a heating time of 2 min, a sample volume of 10 μl placed in a very thin capillary, and a temperature ramp from 35 °C (308 K) to 95 °C (368 K). For the experiment, IP3K-KD was diluted with buffer D to achieve a concentration of 0.31 mg/mL (10 μM). It was then mixed with 100 μM of chiral ligands or 200 μM of racemic ligands (all synthesized as stated in this work except InsP3 and InsP4 that were commercial from Avanti Polar Lipids), AMP-PNP (substrate analogues) or ADP (product-like ligands) and 100 μM MgCl2. Microsoft Excel was used to calculate and plot ΔTi values and standard deviations.

[4] = biological target: T2, IP3K-KD (human IP3K-KD A isoform, residues 187–461); assay: Ligand displacement assay: fluorescence polarization (anisotropy) of 2-FITC-InsP3/IP3K-KD complex; assay type: binding; conditions: for IC50: 100 nM IP3K-KD, 2 nM 2-FITC-InsP3, 20 mM HEPES pH 7.5, 1 mM EDTA, 50 mM KCl, n=4 replicates, 5-s and 5-p racemic, read-out: IC50, displacement of 2-FITC-InsP3 from IP3K-KD; for Quality as IP3K ligand (in words): Fig. 6; for Kd: estimated Ki (Kd) from IC50 with [2-FITC-InsP3] 2 nM and its Kd 68 nM, read-out: Kd inferred from IC50 (Cheng and Prusoff)
Protocol: as §1
Binding of a competing/displacing ligand to protein is observed as a decrease in the polarization (anisotropy) of 2-FITC-InsP3. A comparison of the strength of binding of enzyme substrates, analogues and products to IP3K-KD was obtained by measurement of fluorescence polarization (here anisotropy) of 2-FITC-InsP3/IP3K-KD complex. Experimentally, 100 nM IP3K-KD was mixed with 2 nM 2-FITC-InsP3[37] in 20 mM HEPES pH 7.5, 1 mM EDTA and 50 mM KCl with the addition of displacing compounds over a range of 1 nM–50 μM. Assays were analyzed using a ClarioSTAR plate reader and IC50 values determined from fit of the data to a 4-parameter logistic as described. From IC50 values, we have estimated the Ki (Kd) values for the displacing ligands using the equation of Cheng and Prusoff:[69]1 Ki=IC50/1+L/Kd where [L] is the ligand (2-FITC-InsP3) concentration and Kd the dissociation constant for its interaction with IP3K-KD. […] Consequently, the Ki values for the displacing ligands differ trivially from their IC50 values.

IP3K-KD [5] = biological target: T1, IP3K-KD; assay: HPLC analysis of IP3K-KD reaction mixtures (substrate test); assay type: biochemical; conditions: 150 nM IP3K-KD, 500 μM analogue, 1 mM ATP, 2 h at 30 °C, Fig. 7a
Protocol: as §1

[6] = test system: permeabilized rabbit platelets; set-up: method as in doi:10.1016/0960-894X(96)00399-X; conditions: cited from earlier work

T2 sequence (P23677 187-461): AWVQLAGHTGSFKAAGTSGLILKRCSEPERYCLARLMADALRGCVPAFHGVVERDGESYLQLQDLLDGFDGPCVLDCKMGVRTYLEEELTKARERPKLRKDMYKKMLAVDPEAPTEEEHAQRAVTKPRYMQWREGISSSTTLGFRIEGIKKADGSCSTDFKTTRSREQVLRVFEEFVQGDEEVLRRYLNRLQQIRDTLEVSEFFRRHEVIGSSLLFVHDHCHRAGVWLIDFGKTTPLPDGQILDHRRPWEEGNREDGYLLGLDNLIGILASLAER
T1 sequence (P23677 187-461): as above

| Kd (IP3K-KD [1]) | Ti, transition 1 (mean inflection temperature) [3] | Ti, transition 2 (mean inflection temperature) [3] | ΔTi, transition 1 [3] | ΔTi, transition 2 [3] | Transition 1 Ti, individual measurement [3] | Transition 2 Ti, individual measurement [3] | Transition 1 Dti (Ti-Ti Apo) [3] | Transition 1 Ti Mean [3] | Transition 2 DTi (Ti-Ti Apo) [3] | Transition 2 Ti Mean [3] | IC50 [4] | Quality as IP3K ligand (in words) [4] | Kd [4] | Ability to act as IP3K substrate (in words) (IP3K-KD [5]) | Binding to IP3K (in words) ([3]; Fig. 6b,c) | Stabilization of IP3K-KD by ligand (in words) [3] | Compound | Ability to stimulate cellular Ca2+ release [2] | 45Ca2+ release relative to InsP3 [6] |
| --- | --- | --- | --- | --- | --- | --- | --- | --- | --- | --- | --- | --- | --- | --- | --- | --- | --- | --- | --- |
| 0.068 µM | – | – | – | – | – | – | – | – | – | – | – | – | – | – | – | – | O=C(O)c1cc(NC(=S)NCCO[C@@H]2[C@H](O)[C@@H](OP(=O)(O)O)[C@H](OP(=O)(O)O)[C@@H](O)[C@@H]2OP(=O)(O)O)ccc1-c1c2ccc(=O)cc-2oc2cc(O)ccc12 [2-FITC-InsP3] | – | – |
| – | 52.1 ± 0.1 ºC | 57.6 ± 0.1 ºC | 7.7 ± 0.3 ºC | 3.8 ± 0.2 ºC | 52.2 and 52.1 and 52.0 | 57.6 (2×) and 57.7 | 7.7 | 52.1 | 3.8 | 57.6 | 0.875 µM | maintains quite good binding to IP3K | 0.85 µM | – | – | – | O=P(O)(O)OCC1C(O)C(OP(=O)(O)O)C(O)C(OP(=O)(O)O)C1OP(=O)(O)O (racemic) [5-p, DL-6-deoxy-6-phosphoryloxymethyl-scyllo-inositol 1,2,4-trisphosphate] | abolishes the ability to stimulate cellular Ca^2+ release | – |
| – | 51.3 ± 0.2 ºC | 57.0 ± 0.1 ºC | 6.9 ± 0.4 ºC | 3.2 ± 0.2 ºC | 51.5 and 51.1 and 51.3 | 56.9 (2×) and 57.1 | 6.9 | 51.3 | 3.2 | 57.0 | 0.972 µM | good IP3K ligand | 0.944 µM | are also substrates | – | – | O=P(O)(O)O[C@@H]1[C@@H](O)[C@H](CO)[C@@H](OP(=O)(O)O)[C@H](OP(=O)(O)O)[C@H]1O (racemic) [5-s, DL−6-deoxy-6-hydroxymethyl-scyllo-inositol 1,2,4-trisphosphate] | – | equipotent with InsP3 itself |
| – | 55.6 ± 0.1 ºC | 60.7 ± 0.2 ºC | 11.2 ± 0.3 ºC | 6.9 ± 0.2 ºC | 55.7 and 55.6 (2×) | 60.8 and 60.5 and 60.7 | 11.2 | 55.6 | 6.9 | 60.7 | 0.036 µM | – | 0.035 µM | is a good IP3K substrate | – | – | O=P(O)(O)O[C@@H]1[C@@H](O)[C@H](O)[C@@H](OP(=O)(O)O)[C@H](OP(=O)(O)O)[C@H]1O [1-s, L-scyllo-inositol 1,2,4-trisphosphate] | – | – |
| – | 45.7 ± 0.5 ºC | 54.6 ± 0.0 ºC | 1.3 ± 0.6 ºC | 0.8 ± 0.2 ºC | 45.5 and 46.3 and 45.3 | 54.6 | 1.3 | 45.7 | 0.8 | 54.6 | 8.98 µM | – | 8.72 µM | weaker substrates | – | stabilize IP3K-KD much less than InsP3 | O=P(O)(O)O[C@H]1O[C@H](CO)[C@@H](OP(=O)(O)O)[C@H](OP(=O)(O)O)[C@H]1O [6b–s, α-D-glucopyranosyl 1,3,4-trisphosphate] | – | – |
| – | 51.5 ± 0.2 ºC | 57.3 ± 0.1 ºC | 7.1 ± 0.3 ºC | 3.5 ± 0.2 ºC | 51.4 and 51.5 and 51.7 | 57.4 (2×) and 57.2 | 7.1 | 51.5 | 3.5 | 57.3 | 0.205 µM | – | 0.199 µM | are also substrates | – | – | O=P(O)(O)O[C@@H]1O[C@H](CO)[C@@H](OP(=O)(O)O)[C@H](OP(=O)(O)O)[C@H]1O [6a–s, β-D-glucopyranosyl 1,3,4-trisphosphate] | – | – |

| Compound | Kd (IP3K-KD [1]) | Ti, transition 1 (mean inflection temperature) [3] | Ti, transition 2 (mean inflection temperature) [3] | ΔTi, transition 1 [3] | ΔTi, transition 2 [3] | Transition 1 Ti, individual measurement [3] | Transition 2 Ti, individual measurement [3] | Transition 1 Dti (Ti-Ti Apo) [3] | Transition 1 Ti Mean [3] | Transition 2 DTi (Ti-Ti Apo) [3] | Transition 2 Ti Mean [3] | IC50 [4] | Quality as IP3K ligand (in words) [4] | Kd [4] | Ability to act as IP3K substrate (in words) (IP3K-KD [5]) | Binding to IP3K (in words) ([3]; Fig. 6b,c) | Stabilization of IP3K-KD by ligand (in words) [3] | Ability to stimulate cellular Ca2+ release [2] | 45Ca2+ release relative to InsP3 [6] |
| --- | --- | --- | --- | --- | --- | --- | --- | --- | --- | --- | --- | --- | --- | --- | --- | --- | --- | --- | --- |
| O=P(O)(O)OC[C@H]1O[C@H](CO)[C@@H](OP(=O)(O)O)[C@H](OP(=O)(O)O)[C@H]1O [7b–s, α-D-glucopyranosylmethanol 3,4,1’- trisphosphate] | – | 45.6 ± 0.7 ºC | 54.4 ± 0.3 ºC | 1.2 ± 0.7 ºC | 0.6 ± 0.3 ºC | 45.4 and 45.1 and 46.4 | 54.1 and 54.6 and 54.4 | 1.2 | 45.6 | 0.567 | 54.4 | 6.99 µM | – | 6.79 µM | weaker substrates; also recorded: poor substrate activity for IP3K | do not, or barely, bind IP3K | stabilize IP3K-KD much less than InsP3 | – | – |
